Like-named read-outs stand apart in the source and are kept apart here.
Experiments:
human recombinant AChE = molecular target: T1, human recombinant AChE (Homo sapiens, UniProt P22303); assay: AChE inhibition, Ellman assay; type: biochemical; settings: 37°C
T1 construct: made in house
Description: Candidate phytochemicals dissolved in DMSO were tested for AChE inhibitory activity by the Ellman assay with minor modifications. Ten μL of human recombinant AChE (prepared in-house) and 1 μL of drug were added into 190 μL of PBS buffer (100 mM, pH 7.4) and incubated in a 96-well plate at 37°C for 10 min. […] After 10 min incubation with the substrate, the optical densities were measured in a 96-well plate reader at 412 nm. The optical density was inversely proportional to the inhibitory activity. By contrast, a blank control without the tested compound was also performed in parallel; the normal hydrolytic rate of the enzyme can be represented by the blank control. Each assay was performed in triplicate.
The percentage inhibitory activities of the various compounds were calculated by comparison with the positive control and the blank control. […] Data analysis was performed with Prism software. Inhibitory effects were expressed as IC50 value calculated by regression analysis.

SH-SY5Y cells [1] = assay: MTT cell viability, H2O2-induced cell death; type: cell-based, human
Description: (§1) Human neuroblastoma SH-SY5Y cells were from ATCC (Manassas, VA, usa) and maintained in DMEM/F-12 containing 10% FBS and maintained at 37°C with 95% humidified air and 5% CO2. Rat adrenal medulla pheochromocytoma PC12 cells were from ATCC (Manassas, VA, USA) and maintained in DMEM containing 10% FBS at 37°C with 95% humidified air and 5% CO2.
(§2) MTT colorimetric assay was performed to determine the cell viability. Cells were seeded in 96-well plates at a density of 5 × 10^3 cells/well and treated with test chemicals at desired concentration at 37°C for 12 hours. Subsequently, cells were stimulated with H2O2 (500 μM) for 4 hours. After the exposure period, the cells were incubated with 20 μL MTT (5 mg/mL) for 4 h. The cells were eluted with DMSO and quantified with a spectrophotometer (Ultramark Microplate Reader, Bio-Rad) at a wavelength of 590 nm.

PC12 cells [2] = assay: MTT cell viability, H2O2-induced cell death; type: cell-based, rat
Description: as §1, §2

SH-SY5Y cells [3] = assay: Cytotoxicity test by MTT without H2O2; type: cell-based, human; settings: 10 μM, 12 h, no H2O2
Description: as §2
(§3) Figure 1 Potential AChE inhibitors of natural products attenuated H2O2-induced cell death in both SH-SY5Y and PC12 cells. SH-SY5Y (a) or PC12 (b) cells were cultured with desired concentration of H2O2 for 4 hours; the cell viability was detected by MTT. Data shown are means ± SEM of results from independent experiments in triplicate. *P < 0.05 compared with control cells. SH-SY5Y (c) or PC12 (d) cells were incubated with different potential AChE inhibitors (10 μM) for 12 hours and then stimulated with H2O2 (500 μM) for 4 hours, and the viability was detected by MTT. […] For cytotoxicity test, SH-SY5Y (e) or PC12 (f) cells were incubated with different potential AChE inhibitors (10 μM) for 12 hours, and the viability was detected by MTT. […]

PC12 cells [4] = assay: Cytotoxicity test by MTT without H2O2; type: cell-based, rat; settings: 10 μM, 12 h, no H2O2
Description: as §2, §3

SH-SY5Y cells [5] = assay: Nuclear staining with Hoechst 33258 (apoptosis); type: cell-based, human; settings: pretreatment 12 h, H2O2 4 h
Description: (§4) SH-SY5Y cells and PC12 cells (1 × 10^4 cells/well) in 24-well plates were preincubated with or without test chemicals for 12 hours and subsequently stimulated with H2O2 for the 4 hours. The nuclear morphology of apoptotic cells was measured by Hoechst 33258 nuclear staining according to the manufacturer's instructions. The nuclear morphological change was observed under a fluorescence microscope (Nikon Live Cell Imaging System Ti-E, Japan) using excitation/emission of 360/460 nm.

PC12 cells [6] = assay: Nuclear staining with Hoechst 33258 (apoptosis); type: cell-based, rat; settings: pretreatment 12 h, H2O2 4 h
Description: as §4

SH-SY5Y cells [7] = assay: Intracellular ROS measurement (H2DCF-DA); type: cell-based, human; settings: acetylshikonin 5 and 10 μM 12 h, H2O2 500 μM 2 h
Description: (§5) The cells were treated with desired concentration of acetylshikonin for 12 hours, and then the cells were stained with H2DCF-DA (10 μM) for 30 min. After 30 min staining, cells were stimulated with H2O2 (500 μM) for 2 h, and the fluorescence intensity of H2DCF-DA was measured/detected by a fluorescence spectrophotometer (M1000, TECAN, Austria GmbH, Austria) using excitation/emission of 485/530 nm and a fluorescence microscope (Nikon Live Cell Imaging System Ti-E, Japan) using excitation/emission of 490/530 nm, respectively. Fluorescence intensity of each group was normalized to the control group.

PC12 cells [8] = assay: Intracellular ROS measurement (H2DCF-DA); type: cell-based, rat; settings: acetylshikonin 5 and 10 μM 12 h, H2O2 500 μM 2 h
Description: as §5

SH-SY5Y cells [9] = assay: Mitochondrial membrane potential (Rhodamine 123); type: cell-based, human; settings: pretreatment 12 h, H2O2 500 μM 2 h
Description: as §5, with “were” for “were stained with H2DCF-DA (10 μM) for 30 min. After 30 min staining, cells were”, “2 h. Rhodamine 123 (2 μM) was added to cells after” for “2 h, and”, “the treatment for 30 min at 37°C. Fluorescence” for “the fluorescence”, “of Rhodamine 123” for “of H2DCF-DA”, “Japan) and” for “Japan)”

PC12 cells [10] = assay: Mitochondrial membrane potential (Rhodamine 123); type: cell-based, rat; settings: pretreatment 12 h, H2O2 500 μM 2 h
Description: as §5, with “were” for “were stained with H2DCF-DA (10 μM) for 30 min. After 30 min staining, cells were”, “2 h. Rhodamine 123 (2 μM) was added to cells after” for “2 h, and”, “the treatment for 30 min at 37°C. Fluorescence” for “the fluorescence”, “of Rhodamine 123” for “of H2DCF-DA”, “Japan) and” for “Japan)”

[11] = system: Bcl-2, Bax, p53, caspase-3 in SH-SY5Y cells; assay: Western blot of apoptosis-related proteins; type: cell-based, human; settings: pretreatment 12 h, H2O2 500 μM 1 h
Description: (§6) Proteins in the total cell lysate were separated by 10% SDS polyacrylamide gel electrophoresis and electrotransferred to a polyvinylidene difluoride membrane (Immobilon-P membrane; Millipore, Bedford, MA, USA). After the blot was blocked in a solution of 5% bovine serum albumin, membrane was incubated overnight with primary antibodies against Bcl-2, Bax, Caspase-3, p53, HO-1, or beta-actin followed by incubation with horseradish peroxidase-conjugated secondary antibodies for 1 h. Specific bands were detected with ECL-plus western blotting detection reagent (GE Healthcare Bio-Sciences) and photographed with FujiFilm LAS-3000 (Fujifilm, Tokyo, Japan).

[12] = system: Bcl-2, Bax, p53, caspase-3 in PC12 cells; assay: Western blot of apoptosis-related proteins; type: cell-based, rat; settings: pretreatment 12 h, H2O2 500 μM 1 h
Description: as §6

HO-1 in SH-SY5Y cells = assay: Western blot of HO-1 expression; type: cell-based, human; settings: acetylshikonin 12 h, H2O2 500 μM 1 h
Description: as §6

HO-1 in PC12 cells = assay: Western blot of HO-1 expression; type: cell-based, rat; settings: acetylshikonin 12 h, H2O2 500 μM 1 h
Description: as §6

[13] = IC50, human recombinant AChE, pH 7.4
[14] = human recombinant AChE, pH 7.4, read-out: IC50
[15] = ZnPP 10 μM 2 h, acetylshikonin 12 h, H2O2 500 μM 4 h, MTT
[16] = acetylshikonin 1–10 μM 12 h, then H2O2 500 μM 4 h
[17] = test chemical 10 μM 12 h, then H2O2 500 μM 4 h

T1 sequence (P22303 32-614): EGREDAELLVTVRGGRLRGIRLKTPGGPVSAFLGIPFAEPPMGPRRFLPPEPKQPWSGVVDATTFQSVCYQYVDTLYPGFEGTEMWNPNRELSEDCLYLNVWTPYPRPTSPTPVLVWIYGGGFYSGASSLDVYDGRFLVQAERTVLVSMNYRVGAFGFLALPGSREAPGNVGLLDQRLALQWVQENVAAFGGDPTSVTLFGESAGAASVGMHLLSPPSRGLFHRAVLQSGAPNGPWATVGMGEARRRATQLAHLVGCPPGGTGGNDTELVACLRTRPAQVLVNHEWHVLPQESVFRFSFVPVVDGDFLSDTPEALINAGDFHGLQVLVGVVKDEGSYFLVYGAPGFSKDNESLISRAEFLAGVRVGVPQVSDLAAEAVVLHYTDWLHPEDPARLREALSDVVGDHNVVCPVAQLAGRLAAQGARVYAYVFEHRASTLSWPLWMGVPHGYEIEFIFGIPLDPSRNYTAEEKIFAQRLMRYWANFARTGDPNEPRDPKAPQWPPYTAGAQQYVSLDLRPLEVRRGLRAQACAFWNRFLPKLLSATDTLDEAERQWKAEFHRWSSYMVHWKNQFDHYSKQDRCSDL

Cc1cc(O)c2c(c1)C(=O)c1cc(O)cc(O)c1C2=O [Emodin]
IC50 (human recombinant AChE; [13]): 21.8 µM

CC(C)=CC[C@@H](O)C1=CC(=O)c2c(O)ccc(O)c2C1=O [Shikonin]
IC50 (human recombinant AChE; [13]): 71.8 µM

O=C1c2cccc(O)c2C(=O)c2c(O)cc(CO)cc21 [Aloe-emodin]
IC50 (human recombinant AChE; [13]): 26.8 µM

COc1c2ccoc2c(OCC=C(C)C)c2oc(=O)ccc12 [Phellopterin]
IC50 (human recombinant AChE; [14]): 177 µM

C=CC1=C(C)c2cc3[n-]c(cc4[n-]c(cc5nc(cc1n2)C(C)=C5C=C)c(C)c4CCC(=O)O)c(CCC(=O)O)c3C.[Zn+2] [ZnPP, zinc protoporphyrin IX, reference compound]
Effect of ZnPP on protective effects of acetylshikonin on H2O2-induced cell death (SH-SY5Y cells [1]; [15]): reversed the protective effects | Effect of ZnPP on protective effects of acetylshikonin on H2O2-induced cell death (PC12 cells [2]; [15]): not observed

CC(C)=CCOc1c2occc2cc2ccc(=O)oc12 [Imperatorin]
IC50 (human recombinant AChE; human recombinant AChE, pH 7.4): Undetected

CC(C)=CCc1c2occc2c(O)c2ccc(=O)oc12 [Alloisoimperatorin]
IC50 (human recombinant AChE; [14]): 20.7 µM

Cc1cc(O)c2c(c1)C(=O)c1cccc(O)c1C2=O [Chrysophanol]
IC50 (human recombinant AChE; [13]): 75.8 µM

O=C(O)c1cc(O)c2c(c1)C(=O)c1cccc(O)c1C2=O [Rhein]
IC50 (human recombinant AChE; [13]): 237 µM

CC(C)=CCC(OC(=O)CC(C)C)C1=CC(=O)c2c(O)ccc(O)c2C1=O (stereo not shown) [Isovalerylshikonin]
IC50 (human recombinant AChE; [14]): 82.4 µM

CC(C)=CCC(OC(=O)C=C(C)C)C1=CC(=O)c2c(O)ccc(O)c2C1=O (stereo not drawn) [β,β-Dimethylacrylshikonin]
IC50 (human recombinant AChE; human recombinant AChE, pH 7.4): 62.4 µM

CC(=O)O[C@H](CC=C(C)C)C1=CC(=O)c2c(O)ccc(O)c2C1=O [Acetylshikonin]
IC50 (human recombinant AChE; [13]): 34.6 µM | H2O2-induced cell death and morphology change, dose dependence (SH-SY5Y cells [1]; [16]): dose dependently attenuated | H2O2-induced cell death (cell viability, MTT) (SH-SY5Y cells [1]; [17]): highest viability | H2O2-induced cell death and morphology change, dose dependence (PC12 cells [2]; [16]): dose dependently attenuated | H2O2-induced cell death (cell viability, MTT) (PC12 cells [2]; [17]): highest viability | Cytotoxicity in MTT assay (SH-SY5Y cells [3]): not observed | Cytotoxicity in MTT assay (PC12 cells [4]): not observed | H2O2-induced cell shrinkage and nuclear condensation (Hoechst 33258) (SH-SY5Y cells [5]): dramatically ameliorated | H2O2-induced cell shrinkage and nuclear condensation (Hoechst 33258) (PC12 cells [6]): dramatically ameliorated | H2O2-induced ROS generation (SH-SY5Y cells [7]): statistically declined | H2O2-induced ROS generation (PC12 cells [8]): statistically declined | H2O2-induced mitochondrial membrane potential loss (SH-SY5Y cells [9]): rescued by acetylshikonin in a dose-dependent manner | H2O2-induced mitochondrial membrane potential loss (PC12 cells [10]): rescued by acetylshikonin in a dose-dependent manner | Bax and p53 expression [11]: decreased | Bcl-2 expression [11]: increased expression | H2O2-induced decreased caspase-3 and increased cleaved caspase-3 [11]: rescued by acetylshikonin in a dose-dependent manner | Bax and p53 expression [12]: decreased | Bcl-2 expression [12]: increased expression | H2O2-induced decreased caspase-3 and increased cleaved caspase-3 [12]: rescued by acetylshikonin in a dose-dependent manner | HO-1 expression (HO-1 in SH-SY5Y cells): increased | HO-1 expression (HO-1 in PC12 cells): no impact

COc1c2occc2cc2ccc(=O)oc12 [Xanthotoxin]
IC50 (human recombinant AChE; human recombinant AChE, pH 7.4): 133 µM

From publication PMC3835493, “Acetylshikonin, a Novel AChE Inhibitor, Inhibits Apoptosis via Upregulation of Heme Oxygenase-1 Expression in SH-SY5Y Cells” (Evidence-based Complementary and Alternative Medicine : eCAM, 2013)
